Values after ≈ are worked out from the molar mass of the structure shown. Where two headings read alike, the source gives them in different places.
Columns and labels:
Candida albicans = assay: Antifungal activity in vitro, C. albicans (microdilution); format: cell-based; settings: 27° C.
Experimental: (§1) Antifungal activity in vitro The compounds were tested for antifungal activity against Candida albicans, Cryptococcus neoformans and Aspergillus fumigatus using a microdilution method on microtitre plates (96 wells per plate). Yeast supplemented with 1% glucose and 0.25% di-potassium phosphate was used for the three fungal strains. The fungal cells were inoculated at 3×10^4 CFU (Colony Forming Unit) in […] of medium per well. The medium contained increasing concentrations of test substance. After incubation at 27° C. for 24 or 48 hours the turbidity in each well was measured by a microtitre plate reader. The growth inhibition was calculated in comparison to (without test substance). The IC50 value given in the following Table is the concentration of test substance at which the growth is inhibited by 50%.

Cryptococcus neoformans = assay: Antifungal activity in vitro, C. neoformans (microdilution); format: cell-based; settings: 48 hours, 27° C., read-out: IC50 for C. neoformans after 48 hours (growth inhibition)
Experimental: as §1

Aspergillus fumigatus = assay: Antifungal activity in vitro, A. fumigatus (microdilution); format: cell-based; settings: 48 hours, 27° C., read-out: IC50 for A. fumigatus after 48 hours (growth inhibition)
Experimental: as §1

[1] = biological target: T1, human liver microsomal 2,3-oxidosqualene-lanosterol cyclase (OSC) (Homo sapiens, UniProt P48449); assay: Inhibition of human liver microsomal 2,3-oxidosqualene-lanosterol cyclase (OSC); format: biochemical; settings: for inhibition at 0.1 µM: 100 nM test substance, 1 hour at 37° C., against controls; for IC50: pH 7.4, 1 hour at 37° C., read-out: IC50 (OSC, conversion of MOS into lanosterol)
T1 construct: Liver microsomes from a healthy volunteer were prepared in sodium phosphate buffer (pH 7.4); from tissue; host or cells: liver microsomes from a healthy human volunteer
T1 sequence (P48449 1-732): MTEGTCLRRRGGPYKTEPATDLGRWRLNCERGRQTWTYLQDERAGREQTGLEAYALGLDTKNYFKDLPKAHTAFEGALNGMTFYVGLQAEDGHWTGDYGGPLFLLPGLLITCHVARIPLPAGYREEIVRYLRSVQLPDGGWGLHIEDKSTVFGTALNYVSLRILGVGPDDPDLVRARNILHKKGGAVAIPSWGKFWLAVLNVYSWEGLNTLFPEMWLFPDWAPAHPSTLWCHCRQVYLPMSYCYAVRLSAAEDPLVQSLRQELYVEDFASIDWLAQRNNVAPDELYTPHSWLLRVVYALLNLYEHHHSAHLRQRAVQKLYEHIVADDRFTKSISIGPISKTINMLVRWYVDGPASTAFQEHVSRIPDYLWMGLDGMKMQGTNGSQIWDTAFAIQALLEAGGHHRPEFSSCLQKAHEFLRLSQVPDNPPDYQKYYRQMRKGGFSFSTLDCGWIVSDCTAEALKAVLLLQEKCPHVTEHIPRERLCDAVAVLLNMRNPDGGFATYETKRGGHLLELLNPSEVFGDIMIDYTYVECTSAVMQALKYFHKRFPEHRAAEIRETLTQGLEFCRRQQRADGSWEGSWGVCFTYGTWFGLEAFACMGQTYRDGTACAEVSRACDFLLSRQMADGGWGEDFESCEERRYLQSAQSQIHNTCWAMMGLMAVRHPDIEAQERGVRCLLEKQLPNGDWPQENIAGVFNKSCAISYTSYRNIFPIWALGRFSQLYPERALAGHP
Experimental: Inhibition of human liver microsomal 2,3-oxidosqualene-lanosterol cyclase (OSC)
Liver microsomes from a healthy volunteer were prepared in sodium phosphate buffer (pH 7.4). The OSC activity was measured in the same buffer which also contained 1 mM EDTA and 1 mM dithiothreitol. The microsomes were diluted to 0.8 mg/ml protein in cold phosphate buffer. Dry [^14 C]R,S-monooxidosqualene (MOS; 12.8 μCi/mmol) was diluted to 20 nCi/μl with ethanol and mixed with phosphate buffer-1% BSA (Bovine Serum Albumin). A stock solution of 1 mM test substance in DMSO was diluted to the desired concentration with phosphate buffer-1% BSA. 40 μl of microsomes were mixed with 20 μl of the solution of the test substance and the reaction was subsequently started with 20 μl of the [^14 C]R,S-MOS solution. The final conditions were: 0.4 mg/ml of microsomal proteins and […] of [^14 C]R,S-MOS in phosphate buffer, pH 7.4, containing 0.5% albumin, DMSO <0.1% and ethanol <2%, in a total volume of 80 μl.
After 1 hour at 37° C. the reaction was stopped by the addition of 0.6 ml of 10% KOH-methanol, 0.7 ml of water and 0.1 ml of hexane:ether (1:1, v/v) which contained 25 μg of non-radioactive MOS and 25 μg of lanosterol as the carrier. After shaking 1 ml of hexane:ether (1:1, v/v) was added to each test tube, these were again shaken and then centrifuged. The upper phase was transferred into a glass test tube, the lower phase was again extracted with hexane:ether and combined with the first extract. The entire extract was evaporated to dryness with nitrogen, the residue was suspended in 50 μl of hexane:ether and applied to a silica gel plate. Chromatographic separation was effected in hexane:ether (1:1, v/v) as the eluent. […] After drying radioactive MOS and lanosterol were observed on the silica gel plate. The ratio of MOS to lanosterol was determined from the radioactive bands in order to determine the OSC inhibition.
The test was carried out on the one hand with a constant test substance concentration of 100 nM and the percentage OSC inhibition against controls was calculated. In addition, the test was carried out with different test substance concentrations and subsequently the IC50 value was calculated, i.e. the concentration required to reduce the conversion of MOS into lanosterol to 50% of the control value.

[2] = Cholesterol lowering in fat-fed hamsters; format: in vivo, Male golden hamsters; settings: 200 μmol (about 70-120 mg/kg/day) in diet, 10 days
Experimental: Cholesterol lowering in fat-fed hamsters
Male golden hamsters kept individually were pre-treated for 7 days with a diet containing grated coconut (40 cal. % fat). The animals were then divided into groups each comprising 5 animals. During the treatment the animals were maintained on the same diet. Each test substance was firstly homogenized in 9 ml of water and subsequently mixed with the milled diet. The controls received only feed converted into a paste with water. The animals were treated for 10 days with a test substance dosage of 200 μmol (about 70-120 mg/kg/day). Blood samples (200 μl) were removed via the jugular vein under light anaesthesia on the last day of the pretreatment and one day after the last administration of test substance. The plasma cholesterol concentration was determined using a colorimetric enzyme method. The plasma lipoproteins were separated by exclusion chromatography (Hennes et al., Science Tools, 36, 1992, 10-12). The total cholesterol was determined in each fraction using a fluorometric enzyme method (Gamble et al., J. Lipid Res., 19, 1978, 1068-1071) in order to calculate the amount of cholesterol in the LDL and HDL fractions. The activity on plasma cholesterol and LDL and HDL cholesterol, expressed in percent of the control animals, for the products of Examples 8a and 12 is reproduced in the following Table: […]

[3] = 24 hrs., read-out: IC50 for C. albicans after 24 hrs. (growth inhibition)
[4] = 48 hrs., read-out: IC50 for C. albicans after 48 hrs. (growth inhibition)

| inhibition at 0.1 µM [1] [%] | IC50 [1] [nM] | SMILES | further results |
| --- | --- | --- | --- |
|  |  | C=CCN(C)CCCCCCOc1ccc2c(c1)CCNC2c1ccc(Br)cc1 (racemic) [Example 21, (RS)-allyl-[6-[1-(4-bromo-phenyl)-1,2,3,4-tetrahydro-isoquinolin-6-yloxy]-hexyl]-methyl-amine] | IC50 (Candida albicans; [3]): < 0.32 µg/mL; IC50 (Candida albicans; [4]): 1.3 µg/mL (≈ 2.84 µM); IC50 (Cryptococcus neoformans): < 0.32 µg/mL; IC50 (Aspergillus fumigatus): 4.1 µg/mL (≈ 8.96 µM) |
|  |  | C=CCN(C)CCCCCCOc1ccc2c(c1)N=CNC2c1ccc(Br)cc1 (racemic) [Example 34, (RS)-Allyl-[6-[4-(4-bromo-phenyl)-3,4-dihydro-quinazolin-7-yloxy]-hexyl]-methyl-amine] | IC50 (Candida albicans; [3]): 1.6 µg/mL (≈ 3.51 µM); IC50 (Candida albicans; [4]): 6.5 µg/mL (≈ 14.2 µM); IC50 (Cryptococcus neoformans): < 0.32 µg/mL; IC50 (Aspergillus fumigatus): 3.9 µg/mL (≈ 8.54 µM) |
| 83 | 3.6 | CN(C[C@@H]1C[C@H]1COc1ccc2c(-c3ccc(Br)cc3)nccc2c1)C1CC1 (racemic) [Example 39, (1RS,2RS)-[2-[1-(4-Bromo-phenyl)-isoquinolin-6-yloxymethyl]-cyclopropylmethyl]-cyclopropyl-methyl-amine] |  |
| 92 | 1.65 | C=CCN(C)C/C=C/COc1ccc2c(-c3ccc(Br)cc3)nsc2c1 [Example 2a, (E)-allyl-[4-[3-(4-bromo-phenyl)-benzo[d]isothiazol-6-yloxy]-but-2-enyl]-methyl-amine] |  |
| 32 |  | CSCCN(C)CCCCCCOc1ccc2c(-c3ccc(Br)cc3)nsc2c1 [Example 2b] |  |
| 99 | 4 | C=CCN(C)CCCCCCOc1ccc2c(-c3ccc(Br)cc3)csc2c1 [Example 3, allyl-[6-[3-(4-bromo-phenyl)-benzo[b]thiophen-6-yloxy]-hexyl]methyl-amine] |  |
| 62 |  | C=CCN(C)C/C=C/COc1ccc2c(CCC=C(C)C)nsc2c1 [Example 6, (E)-allyl-methyl-[4-[3-(4-methyl-pent-3-enyl)-benzo[d]isothiazol-6-yloxy]-but-2-enyl]-amine] |  |
| 61 |  | C=CCN(C)C/C=C/COc1ccc2c(-c3ccc(Br)cc3)noc2c1 [Example 12] |  |
| 30 |  | C=CCN(C)CCCCCCOc1ccc(-c2noc3cc(Br)ccc23)cc1 [Example 14] |  |
| 99 |  | C=CCN(C)CCCCCCOc1ccc2c(-c3ccc(Br)cc3)nccc2c1 [Example 23, allyl-[6-[1-(4-bromo-phenyl)-isoquinolin-6-yloxy]-hexyl]-methyl-amine] | HDL cholesterol (plasma, percent of control animals) [2]: -2%; LDL cholesterol (plasma, percent of control animals) [2]: -23%; Total cholesterol (plasma, percent of control animals) [2]: -15% |
| 95 | 2.1 | C=CCN(C)C/C=C/COc1ccc2c(c1)CCN=C2c1ccc(Br)cc1 [Example 26, (E)-allyl-[4-[1-(4-bromo-phenyl)-3,4-dihydro-isoquinolin-6-yloxy]-but-2-enyl]-methyl-amine] |  |
| 96 | 3.7 | C=CCN(C)C/C=C/COc1ccc2c(c1)CON=C2c1ccc(Br)cc1 [Example 27, (E)-allyl-[4-[4-(4-bromo-phenyl)-1H-benzo[d][1,2]oxazin-7-yloxy]-but-2-enyl]-methyl-amine] |  |
| 85 |  | C=CCN(C)CCCCCCOc1ccc2c(-c3ccc(Br)cc3)nncc2c1 [Example 29, allyl-[6-[1-(4-bromo-phenyl)-phthalazin-6-yloxy]-hexyl]-methyl-amine] |  |
|  |  | C=CCN(C)CCCCCCOc1ccc2c(-c3ccc(Br)cc3)nncc2c1 [Example 29a, allyl-[6-[1-(4-bromo-phenyl)-phthalazin-6-yloxy]-hexyl]-methyl-amine] | IC50 (Candida albicans; [3]): < 0.32 µg/mL; IC50 (Candida albicans; [4]): 1.1 µg/mL (≈ 2.42 µM); IC50 (Cryptococcus neoformans): < 0.32 µg/mL; IC50 (Aspergillus fumigatus): 0.37 µg/mL (≈ 0.814 µM) |
| 79 | 29 | C=CCN(C)C/C=C/COc1cc2c(cc1F)c(-c1ccc(Br)cc1)nn2C [Example 31, (E)-allyl-[4-[3-(4-bromo-phenyl)-5-fluoro-1-methyl-1H-indazol-6-yloxy]-but-2-enyl]-methyl-amine] |  |
| 75 |  | C=CCN(C)CCCCCCOc1ccc2c(CCC=C(C)C)nn(C)c2c1 [Example 32e, allyl-methyl-[6-[1-methyl-3-(4-methyl-pent-3-enyl)-1H-indazol-6-yloxy]-hexyl]amine] |  |
| 54 |  | C=CCN(C)C/C=C/COc1ccc2c(CCC=C(C)C)nn(C)c2c1 [Example 32h, (E)-allyl-methyl-[4-[1-methyl-3-(4-methyl-pent-3-enyl)-1H-indazol-6-yloxy]-but-2-enyl]-amine] |  |
| 55 |  | CN(CCCCCCOc1ccc2c(-c3ccc(Br)cc3)nn(C)c2c1)C1CC1 [Example 32i, [6-[3-(4-bromo-phenyl)-1-methyl-1H-indazol-6-yloxy]-hexyl]-cyclopropyl-methyl-amine] |  |
| 62 |  | C=CCN(C)CCCCCCOc1ccc2c(-c3ccc(Br)cc3)n[nH]c2c1 [Example 32k, allyl-[6-[3-(4-bromo-phenyl)-1H-indazol-6-yloxy]-hexyl]-methyl-amine] |  |
| 94 | 12.3 | C=CCN(C)CCCCCCOc1ccc2c(-c3ccc(Br)cc3)ncnc2c1 [Example 33, Allyl-[6-[4-(4-bromo-phenyl)-quinazolin-7-yloxy]-hexyl]-methyl-amine] |  |
| 77 | 24 | C=CCN(C)CCCCCCOc1ccc2c(c1)OCC=C2c1ccc(Br)cc1 [Example 37, Allyl-[6-[4-(4-bromo-phenyl)-2H-chromen-7-yloxy]-hexyl]-methyl-amine] |  |
| 84 |  | C=CCN(C)CCCCCCOc1ccc2c(-c3ccc(Br)cc3)ccnc2c1 [Example 38, Allyl-[6-[4-(4-bromo-phenyl)-quinolin-7-yloxy]-hexyl]-methyl-amine] |  |

Reference: patent publication US5856503A, “Aminoalkyl-substituted benzo-heterocyclic compounds” (Hoffmann-La Roche Inc., priority 1995, dated 1999)
